Results: patent publication US20120329749A1, “Methods Of Preventing Or Treating Disease States Related To Certain Metabolic Abnormalities” (priority 2011, published 2012)

Test system: erectile dysfunction
Test: Patient-reported erectile dysfunction symptoms
Description: The patient was placed on a regimen of 5,0 mg L-methylfolate and 2 mg methyl-B12 per day.
The patient was placed on a regimen of 2.8 mg L-methylfolate and 2 mg methyl-B12 per day.
The patient was placed on a regimen of 5.0 mg L-methylfolate and 2 mg methyl-B12 per day.
The patient was placed on a regimen of L-methylfolate, methyl-B12, and pyridoxal-5-phosphate (PSP; active vitamin B6) twice per day.
The patient was placed on a regimen of L-methylfolate, methyl-B12, and pyridoxal-5-phosphate (P5P; active vitamin B6) twice per day.

## CCCc1nn(C)c2c(=O)[nH]c(-c3cc(S(=O)(=O)N4CCN(C)CC4)ccc3OCC)nc12 [Viagra]
Patient 20, 50 mg for 2 months
  effect on erectile dysfunction (patient history): ineffective
Patient 21, 20 mg for 1 month
  effect on erectile dysfunction (patient history): ineffective
